The values below come from paper PMC9513850, “Receptor-binding domain-anchored peptides block binding of severe acute respiratory syndrome coronavirus 2 spike proteins with cell surface angiotensin-converting enzyme 2” (Frontiers in Microbiology, 2022).

“Also recorded” adds a separate entry of the source.

The subject of assay [1] is S-trimer-ACE2 binding, recombinant ACE2 proteins. Kind of assay: Blocking of S-trimer binding onto recombinant ACE2 (ELISA). More on the design: species or system SARS-CoV-2 (S-trimer). The conditions noted are these: ACE2 coated 5 μg/ml, S-trimer 0.01 μM premixed with 0.5, 1.65 and 5 μM peptide (up to 500:1). How it is done:
Then, 293T-ACE2hR cells were substituted by recombinant ACE2 proteins and coated onto ELISA plates in the other measurement setting. In brief, recombinant ACE2 proteins (Novoprotein) were immobilized overnight at room temperature on ELISA plates at a 5 μg/ml concentration in 0.1 M NaHCO3, pH 9.6. The plates were then blocked with 10% fetal calf serum for 2 h and washed with tris-buffered saline solution containing 0.1% Tween-20 [[…] (PBST) buffer]. […] The following procedures were described above for the 293T-ACE2hR cells setting.
FIGURE 3 The potential blocking effect of peptides on the binding of S-trimer onto cellular or soluble angiotensin-converting enzyme 2 (ACE2). […] The peptide SBP1 was used as a positive and peptide SBP2 as the negative control. *p < 0.05, vs. vehicle, all by Student’s t-test.
In general terms: ELISA stands for enzyme-linked immunosorbent assay.

For assay [2], the system named is recombinant SARS-CoV-2 S-trimer proteins. Kind of assay: Phage display (PhD-12) panning against S-trimer. It counts as binding. The conditions noted are these: phage-displayed sequence, after panning against S-trimer.
The subject of assay [3] is S-trimer-ACE2 binding, 293T-ACE2hR cells. It counts as cell-based, SARS-CoV-2 (S-trimer); human (hACE2). As to conditions: for blocking of S-trimer binding onto 293T-ACE2hR cells, lower concentrations: 10 μM peptide and below, S-trimer 0.001 μM; for blocking of S-trimer binding onto 293T-ACE2hR cells, lower concentrations / blocking of S-trimer binding onto 293T-ACE2hR cells: premix 1 h, then 1 h on cells, room temperature, HRP anti-6X His tag, TMB, OD370 nm; for blocking of S-trimer binding onto 293T-ACE2hR cells: 50 μM peptide vs. 0.001 μM S-trimer (50,000-fold), p < 0.05 mark vs. vehicle, Student's t-test; for behaviour of C2 and C6 in the competition assay: Figure 3.

The subject of assay [4] is recombinant SARS-CoV-2 S-RBD. Kind of assay: Phage display (PhD-12) panning against S-RBD. The conditions noted are these: phage-displayed sequence, after panning against S-RBD. Format: binding.
In assay [5] the test system is ACE2 binding onto S-RBD proteins. Also noted: method as in Zhang et al., 2020. As to conditions: ref Zhang et al., 2020; cited from earlier work.
In assay [6] the test system is cell surface S-RBD proteins. Also noted: method as in Zhang et al., 2020. As to conditions: ref Zhang et al., 2020; cited from earlier work.
For a further assay, the system named is S-RBD proteins. Also noted: method as in Zhang et al., 2020. The conditions noted are these: bio-layer interferometry; ref Zhang et al., 2020; cited from earlier work. On the technique in general: BLI is a label-free optical method that tracks binding on a fibre tip over time.

DHAQRYGAGHSG [C2]: in assay [1], the “blocking of S-trimer binding onto recombinant ACE2” value is “neither for the settings of S-trimer binding onto recombinant ACE2 proteins; also recorded: Failure of 500-fold overdose of C2 or C6 peptides to block S-trimers binding with their receptors”. For the same sequence, the “enrichment by S-trimer” value in assay [2] was “only C2 was present in S-trimer selected phages”. In assay [3], the “blocking of S-trimer binding onto 293T-ACE2hR cells, lower concentrations” value was “not at lower concentrations (10 μM and below)”; the “blocking of S-trimer binding onto 293T-ACE2hR cells” value was “inhibited S-trimer binding onto 293T-ACE2hR cells at high concentrations (50 μM); also recorded: a blocking effect was observed for C2 and C6”; the “behaviour of C2 and C6 in the competition assay” value was “C2 and C6 behaved similarly in the competition assay”. In addition, the “enrichment by S-RBD” value in assay [4] is on record as “enriched by S-RBD”.

Turning to HWKAVNWLKPWT [C6], the “blocking of S-trimer binding onto recombinant ACE2” value in assay [1] is “neither for the settings of S-trimer binding onto recombinant ACE2 proteins; also recorded: Failure of 500-fold overdose of C2 or C6 peptides to block S-trimers binding with their receptors”. Besides, in assay [3], the “blocking of S-trimer binding onto 293T-ACE2hR cells, lower concentrations” value was “not at lower concentrations (10 μM and below)”; the “blocking of S-trimer binding onto 293T-ACE2hR cells” value is “inhibited S-trimer binding onto 293T-ACE2hR cells at high concentrations (50 μM); also recorded: a blocking effect was observed for C2 and C6”; the “behaviour of C2 and C6 in the competition assay” value was “C2 and C6 behaved similarly in the competition assay”. Also, in assay [4], the “enrichment by S-RBD” value was “enriched by S-RBD”.

For IEEQAKTFLDKFNHEAEDLFYQSK [SBP1], the “competition with ACE2 binding onto S-RBD” value in assay [5] is reported as “nor did they outcompete ACE2 binding onto S-RBD proteins”. Further, the “association with cell surface S-RBD proteins” value in assay [6] is “neither associated with cell surface S-RBD proteins”. For the same sequence, in the assay on S-RBD proteins, the “association with S-RBD proteins” value is recorded as “at the level of micromolar scales”. The “blocking of S-trimer binding onto 293T-ACE2hR cells” value in assay [3] is “still not for SBP1 or SBP2 peptides”.

As for TFLDKFNHEAED [SBP2, reference compound], the “blocking of S-trimer binding onto 293T-ACE2hR cells” value in assay [3] was “still not for SBP1 or SBP2 peptides”.
